Experimental data as given in US20160067232A1, “METHODS FOR TREATING A STROKE-RELATED SENSORIMOTOR IMPAIRMENT USING AMINOPYRIDINES” (Acorda Therapeutics, Inc., priority 2011, published 2016).
Values joined by “and” are separate entries in the source; they are usually repeats but may differ in a detail not shown here. Equal values may be shown once.

Tests used:
[1] = test system: rats with middle cerebral artery occlusion (MCAO); experiment: Hindlimb placing test, MCAO rats, dose escalation study (Example 17); format: in vivo, Sprague Dawley rat
From the text: (§1) Limb Placing: Evaluated at Day −1 (pre-operation), Day 1, Day 7, Day 14, Day 21, Day 28, Day 30, Day 32, Day 42, Day 44, Day 46, Day 56, Day 58, Day 60. The limb placing tests were divided into forelimb and hindlimb tests. For the forelimb-placing test, the examiner held the rat close to a tabletop and scored the rat's ability to place the forelimb on the tabletop in response to whisker, visual, tactile, or proprioceptive stimulation. Similarly, for the hindlimb placing test, the examiner assessed the rat's ability to place the hindlimb on the tabletop in response to tactile and proprioceptive stimulation. Together, these tests reflect function and recovery in the sensorimotor systems (De Ryck et al., Brain Res 1992; 573:44-60). Separate sub-scores were obtained for each mode of sensory input and added to give total scores (for the forelimb placing test: 0=normal, 12=maximally impaired; for the hindlimb placing test: 0=normal; 6=maximally impaired). Scores were given in half-point increments (see below). Typically, there is a slow and steady recovery of limb placing behavior during the first month after stroke.
Hindlimb placing test (0-6): • tactile placing (dorsal (0-2), lateral (0-2)) • proprioceptive placing (0-2).
(§2) For each subtest, animals are scored as followed: • 0.0=immediate response • 0.5=response within 2 seconds • 1.0=response of 2-3 seconds • 1.5=response of >3 seconds • 2.0=no response
(§3) 4-AP was evaluated for its ability to promote functional sensorimotor improvement following ischemic stroke in rats with stable motor deficits at times remote from their ischemic events. The animal model of ischemic stroke, i.e., the MCAO model, used in this example is the same as the animal model described in Example 2.
(§4) In the MCAO model recovery begins to plateau by 4 weeks after MCAO, at which time there are still measurable deficits in sensorimotor function. However, 4 weeks after MCAO there may still be slow continued endogenous recovery.
4-aminopyridine was dissolved in water for injection (WFI, Cellgro) and sterile filtered. Solutions of 0.25 mg/mL, 0.5 mg/mL and 1.0 mg/mL of 4-aminopyridine were delivered by gastric gavage at 2 mL/kg for final doses of 0.5 mg/kg, 1 mg/kg or 2.0 mg/kg respectively. Vehicle control treatment was WFI delivered at 2 mL/kg by gastric gavage. Starting on Day 56 after MCAO, animals received gastric gavage of solutions (2 mL/kg) approximately 12 hours apart. The vehicle control group was treated with water for all doses on Days 56-65. For the treated group, six doses of 4-aminopyridine at 0.5 mg/kg were delivered over Days 56-59, followed by six doses at 1.0 mg/kg over Days 59-62 and six doses at 2.0 mg/kg over Days 62-65. Animals in all groups were not treated during Days 66-70. p.o.=par oral. […]

[2] = test system: rats with middle cerebral artery occlusion (MCAO); experiment: Forelimb placing test, MCAO rats, dose escalation study (Example 17); format: in vivo, Sprague Dawley rat; conditions: for Forelimb placing compared to vehicle: p<0.001
From the text: as §1, with “The” for “Limb Placing: Evaluated at Day −1 (pre-operation), Day 1, Day 7, Day 14, Day 21, Day 28, Day 30, Day 32, Day 42, Day 44, Day 46, Day 56, Day 58, Day 60. The”
Forelimb placing test (0-12): • whisker placing (0-2); • visual placing (forward (0-2), sideways (0-2)) • tactile placing (dorsal (0-2), lateral (0-2)) • proprioceptive placing (0-2).
as §2, §3, §4
4-aminopyridine was dissolved in water for injection (WFI, Cellgro) and sterile filtered. […]

[3] = Hayes et al., J. Clin. Pharmacol. 2003; cited from earlier work
[4] = Body weight (g) of MCAO rats (Example 2); conditions: individual animals and Mean (N=15), listed as 4-AP

Nc1ccncc1 [4-aminopyridine]
Hind limb placing score compared to vehicle ([1]; 0.5 mg/kg b.i.d. p.o., Day 59): improved with the low dose but did not reach significance | Hind limb placing compared to vehicle ([1]; 1 mg/kg b.i.d. p.o., Day 62, p<0.05): measureable improvement | Hind limb function compared to vehicle ([1]; 2 mg/kg b.i.d. p.o., Day 65, p<0.001): significant improvements | Hind limb score after treatment withdrawn for 5 days ([1]; Day 70, p<0.05): remained greater than the vehicle treated group | Forelimb placing compared to vehicle ([2]; 0.5 mg/kg b.i.d. p.o., Day 59, treatment started Day 56 after MCAO): significantly improved in forelimb placing | Forelimb placing compared to vehicle ([2]; 1 mg/kg b.i.d. p.o., Day 62): measureable improvement | Forelimb function compared to vehicle ([2]; 2 mg/kg b.i.d. p.o., Day 65, p<0.0001): significant improvements | half life [3]: 1 to 1.5 h | Weight (g) Group 1, D30 ([4]; Group 1, D30, treatment phase 1 (high-dose 4-AP)): 425 g (2×) and 450 g and 435 g and 490 g and 544 g and 470 g and 512 g and 434 g and 482 g and 480 g and 360 g and 422 g and 496 g and 372 g | Weight (g) Group 1, D32 ([4]; Group 1, D32, treatment phase 1 (high-dose 4-AP)): 411 g and 441 g and 417 g and 470 g and 515 g and 454 g and 496 g and 422 g and 453 g and 461 g and 351 g and 404 g and 412 g and 477 g and 360 g | Weight (g) Group 1, D44 ([4]; Group 1, D44, treatment phase 2 (low-dose 4-AP)): 455 g and 501 g and 447 g and 511 g and 566 g and 480 g and 545 g and 454 g and 502 g (2×) and 400 g and 440 g and 456 g and 494 g and 390 g | Weight (g) Group 1, D46 ([4]; Group 1, D46, treatment phase 2 (low-dose 4-AP)): 448 g and 490 g (2×) and 440 g and 494 g (2×) and 570 g and 488 g and 552 g and 457 g and 491 g and 386 g and 442 g and 446 g and 379 g | Weight (g) Group 2, D30 ([4]; Group 2, D30, treatment phase 1 (low-dose 4-AP)): 474 g and 380 g (2×) and 414 g and 444 g and 410 g and 480 g (2×) and 540 g and 475 g and 512 g and 434 g and 420 g and 416 g and 431 g | Weight (g) Group 2, D32 ([4]; Group 2, D32, treatment phase 1 (low-dose 4-AP)): 473 g and 369 g and 410 g and 426 g and 406 g and 455 g and 541 g and 467 g and 508 g and 476 g and 424 g and 403 g and 412 g and 374 g and 428 g | Weight (g) Group 2, D58 ([4]; Group 2, D58, treatment phase 3 (high-dose 4-AP)): 530 g and 425 g and 461 g and 477 g and 455 g and 540 g and 635 g and 535 g and 570 g and 546 g and 499 g and 456 g and 470 g and 432 g and 483 g | Weight (g) Group 2, D60 ([4]; Group 2, D60, treatment phase 3 (high-dose 4-AP)): 517 g and 410 g and 444 g (2×) and 460 g and 441 g and 519 g and 614 g and 508 g and 535 g and 530 g and 488 g and 447 g and 417 g and 471 g | Weight (g) Group 3, D44 ([4]; Group 3, D44, treatment phase 2 (high-dose 4-AP)): 460 g and 461 g and 469 g and 451 g and 423 g and 462 g and 463 g (2×) and 532 g and 572 g and 538 g and 442 g and 445 g (2×) and 453 g | Weight (g) Group 3, D46 ([4]; Group 3, D46, treatment phase 2 (high-dose 4-AP)): 440 g and 436 g (2×) and 455 g and 435 g (2×) and 402 g and 442 g and 502 g and 567 g and 497 g and 446 g and 430 g (2×) and 412 g | Weight (g) Group 3, D58 ([4]; Group 3, D58, treatment phase 3 (low-dose 4-AP)): 475 g and 486 g and 485 g and 467 g and 440 g and 472 g and 490 g and 550 g and 625 g and 573 g and 492 g and 462 g and 469 g and 476 g and 461 g | Weight (g) Group 3, D60 ([4]; Group 3, D60, treatment phase 3 (low-dose 4-AP)): 466 g and 479 g and 484 g (2×) and 463 g and 430 g and 465 g and 550 g and 613 g and 549 g and 468 g and 453 g and 456 g and 470 g and 447 g
